Test results reported in ChEMBL document CHEMBL3132803 (Medchemcomm, 2013).

Experiments:
DU-145 = assay: Cytotoxicity against human DU145 cells assessed as inhibition of cell proliferation after 24 hrs by MTT assay; type: functional, cell-based; details: DU-145, 24 h
[1] = Cytotoxicity against human […] cells assessed as inhibition of cell proliferation after 3 days by coulter counter analysis; type: functional, cell-based; details: 72 h
Raji = assay: Cytotoxicity against human Raji cells assessed as inhibition of cell proliferation after 3 days by coulter counter analysis; type: functional, cell-based; details: 72 h
[2] = AUC in Sprague-Dawley rat CSF at 2.5 mg/kg, iv administered as single dose by CE-UV analysis; type: ADME, organism-based; design: dose 2.5 mg/kg, route intravenous; details: cerebrospinal fluid
[3] = AUC in Sprague-Dawley rat serum at 2.5 mg/kg, iv administered as single dose by CE-UV analysis; type: ADME, organism-based; design: dose 2.5 mg/kg, route intravenous
Serum = assay: Ratio of AUC in CSF to AUC in serum of Sprague-Dawley rat at 2.5 mg/kg, iv; type: ADME, organism-based; design: dose 2.5 mg/kg, route intravenous

Row | SMILES | IC50 (DU-145) [nM] | IC50 [1] [nM] | IC50 (Raji) [nM] | AUC [2] [µM·h] | AUC [3] [µM·h] | Ratio AUC (Serum) [%]
1 | COc1ccc(CN2C(=O)N[C@H]3[C@@H]4NC(=O)c5ccc(Br)n5[C@@H]4C[C@]32O)cc1 | > 10000 | – | – | – | – | –
2 | CCN1C(=O)N[C@H]2[C@@H]3NC(=O)c4cccn4[C@@H]3C[C@]21O | > 10000 | – | – | – | – | –
3 | CN1C(=O)N[C@H]2[C@@H]3NC(=O)c4cccn4[C@@H]3C[C@]21O | > 10000 | 3000 | 3160 | – | – | –
4 | CN1C(=O)N[C@@H]2[C@H]3NC(=O)c4ccc(Br)n4[C@H]3C[C@@]21O | > 10000 | – | – | – | – | –
5 | CN1C(=O)N[C@H]2[C@@H]3NC(=O)c4ccc(Br)n4[C@@H]3C[C@]21O [AGELASTATIN A] | 2300 | 2800 | 140 | 3.41 | 53.2 | –
6 | CNC(=O)N[C@H]1[C@@H]2NC(=O)c3ccc(Br)n3[C@@H]2C[C@H]1O | – | > 10000 | > 10000 | – | – | –
7 | O=C1N[C@H]2[C@@H]3NC(=O)c4cccn4[C@@H]3C[C@H]2O1 | – | > 10000 | > 10000 | – | – | –
8 | CNC(=O)N[C@H]1[C@@H]2NC(=O)c3cccn3[C@@H]2C[C@H]1O | – | > 10000 | > 10000 | – | – | –
9 | CN1C(=O)N[C@H]2[C@@H]3NC(=O)c4ccc(-c5ccccc5)n4[C@@H]3C[C@]21O | 6000 | 1500 | 3800 | – | – | –
10 | CCN1C(=O)N[C@H]2[C@@H]3NC(=O)c4ccc(Br)n4[C@@H]3C[C@]21O | > 10000 | – | – | – | – | –
11 | CCN1C(=O)N[C@H]2[C@@H]3NC(=O)c4ccc(Cl)n4[C@@H]3C[C@]21O | 2600 | 280 | 300 | 10.1 | 37.5 | 27
12 | CN1C(=O)N[C@H]2[C@@H]3NC(=O)c4ccc(Cl)n4[C@@H]3C[C@]21O | 1200 | 80 | 180 | 3.75 | 22.8 | 16
13 | CN1C(=O)N[C@H]2[C@@H]3NC(=O)c4ccc(C5CC5)n4[C@@H]3C[C@]21O | 5000 | 1000 | 400 | – | – | –
14 | CN1C(=O)N[C@H]2[C@@H]3NC(=O)c4ccc(-c5ccc(N)cc5)n4[C@@H]3C[C@]21O | > 10000 | – | – | – | – | –
15 | CCN1C(=O)N[C@H]2[C@@H]3NC(=O)c4cc(Cl)c(Cl)n4[C@@H]3C[C@]21O | 1400 | 440 | 620 | 7.6 | 24.8 | 30.7
